Measured values: patent publication US9109045B2, “Mass producing growth factor using adipose derived adult stem cells” (PROSTEMICS CO., LTD., priority 2006, dated 2015)
Values joined by “and” are separate entries in the source; they are usually repeats but may differ in a detail not shown here. Equal entries are not always repeated. Where two headings read alike, the source gives them in different places.

Experiments:
[1] = tested on: adipose-derived stem cells
[2] = tested on: adipose-derived stem cells; experiment: Growth factor secretion (ELISA) of adipose-derived stem cells under chemical stimulation with vitamins; assay type: cell-based, human; details: for optimal concentration for synthesis of growth factors: added to serum-free culture medium of adipose-derived stem cells; for TGF β-1 expression / protein levels increased / VEGF expression / protein levels increased / bFGF expression / protein levels increased: chemical stimulation only, vitamin(s) at optimal concentration in serum-free medium, more than 48 hours, compared with control group
Procedure: In order to examine whether chemical stimulation using a vitamin promotes the synthesis and secretion of growth factors, in the present invention, adipose-derived stem cells were cultured in vitro using serum media and then using serum-free media as described above.
Preferably, after vitamin is added to the culture medium, the culture is incubated for more than 48 hours. When a mixture of vitamins is used, the optimal concentrations of vitamins are the same as above.
Specifically, 1 ml of the culture medium obtained by culturing adipose-derived stem cells to passage 3 in the conditions of Example 1-2 was centrifuged at 1200 g for 5 minutes, and then filtered through a […] filter to remove cell residue. […] Then, the concentration of each of growth factors VEGF, bFGF and TGF β-1 secreted in the culture medium was measured using a sandwich ELISA kit (Quantikine Human FGF basic Immunoassay, R&D systems).
To examine the concentrations of optimally diluted growth factors, the culture medium was serially diluted at the same concentration ratio with a calibration dilution in the kit, the concentration at the absorbance included in the range of the standard curve was determined, and the values included in the range of the standard curve were plotted as data. […] of each growth factor-containing culture media and standard solutions of growth factors was placed in each well coated with an antibody to each of the growth factors (Quantikine Human FGF basic Immunoassay, R&D systems) and was cultured at room temperature for 2 hours. After completion of the antigen-antibody binding reaction, each well was washed four times with wash buffer, and […] of a solution (Quantikine Human FGF basic Immunoassay, R&D systems), containing a secondary antibody to each of the growth factors, was placed in each well, followed by culture at room temperature for 2 hours. After completion of the second antibody binding reaction, each well was washed four times with wash buffer, […] of a color-developing reagent (tetramethylbenzidine, R&D systems) was added to each well, and then the absorbance of the medium was measured at 450 nm with an ELISA reader.
Adipose tissue-derived stem cells were cultured to passage 3 as described in Example (1-2), and when the cultured cells reached a confluence of 80%, the cells were collected with trypsin/EDTA. Then, the cells were accurately dispensed into a 6-well plate at a density of 25,000 cells/well. […]
Cells were cultured in this medium.
The cells were cultured in the above medium in a 5% carbon dioxide incubator at 37° C. for more than 48 hours, and then 200 μl of the culture medium supernatant was centrifuged at 3,000 rpm and filtered through 0.22-μm filter paper. Then, the concentrations of bFGF, VEGF and TGF β-1 in the filtrate were measured by the enzyme-linked immunosorbent assay (ELISA) of Example 2.
As a control group, a normal medium, was used, which was not subjected to physical stimulation or chemical stimulation. The increase in growth factors was compared between the control group and the culture medium subjected to physical stimulation and chemical stimulation.
In a culture process, cells were added to a serum-free medium prepared by adding a Ham's F-12 nutrient mixture to DMEM not containing a pH indicator such as phenol red, at a ratio of 1:1, and adding thereto 2 mM L-glutamine, 1 mM sodium pyruvate and 0.17% sodium bicarbonate. Then, the cells were cultured in a 5% carbon dioxide incubator at 37° C. for more than 48 hours. Then, 200 μl of the culture medium supernatant was centrifuged at 3,000 rpm, and then filtered through 0.22-μm filter paper. Then, the concentrations of bFGF, VEGF and TGF β-1 were measured by the enzyme-linked immunosorbent assay (ELISA) of Example 2.
The case where physical stimulation is used in combination with chemical stimulation will now be described.
For VEGF, a medium was irradiated with UV light and then subjected to scratch stimulation. […]

[3] = tested on: fibroblast cells; experiment: Cell proliferation potential: stem cell culture medium vs recombinant growth factor-containing media; assay type: cell-based, human; details: 5000 cells/well seeded; rFGF 50 ng, rVEGF 500 ng in normal media; stem cell medium at 100%
Procedure: Stem cells isolated from adipose tissue were cultured to passage-3 as described in Example (1-2), and then 10^6 cells of the stem cells were seeded into a T175 flask (area: 175 cm^2; volume: 500 ml) and cultured for 3 days. The culture medium was collected, and added at a concentration of 100% to a 6-well plate in which passage-4 fibroblast cells from the skin tissue of a child were dispensed at a density of 5000 cells/well. For the control group, a medium containing the same concentrations of recombinant growth factors VEGF and bFGF (Santa Cruz.) expressed in E. coli was used. Cell proliferation potential was compared between the adipose-derived stem cell culture medium and the recombinant growth factor-containing culture medium using a cell viability measurement kit.

[4] = tested on: keratinocytes; experiment: Defensive effect against exposure of keratinocytes to UV light (cell viability); assay type: cell-based; details: UV light 40 W double lamp 8 minutes, viability after 24 hours, 2.5 cc medium in 5 cc KGM or 2 uM retinol
Procedure: The defensive effect of growth factors secreted from adipose-derived stem cells against the exposure of keratinocytes UV light was tested in the following manner. Keratinocytes were dispensed into a 6-well plate at a suitable cell concentration in KGM (karatinocyte growth medium; Clonetics.) and incubated in a 5% carbon dioxide incubator at 37° C. To the medium, 2.5 cc of 100% ADSC 3-passage 3-day cultured medium was added to adjust the KGM to 5 cc. Also, 2 uM retinol was added to 5 cc of KGM. Also, as a negative control group, 5 cc of KGM alone was administered to keratinocytes. Each of the test samples was stabilized for 4 hours, such that the raw materials were sufficiently dispersed. After that, each of the test samples was irradiated with UV light using a 40 W double lamp for 8 minutes in an aseptic laboratory. After 24 hours, the UV defense function of the test sample was measured by determining the viability of the cells in comparison with the negative control group, which was untreated with the culture medium or retinol and irradiated with UV light for 8 minutes.

Row | Compound | cytotoxicity by MTT assay [1] | optimal concentration for synthesis of growth factors [2] | TGF β-1 expression / protein levels increased [2] [times] | VEGF expression / protein levels increased [2] | bFGF expression / protein levels increased [2] [times] | cell proliferation potential, Cells [3] [Cells] | Defensive effect [4] [%] | Defensive effect ([4]; listed as retinol) [%] | cytotoxicity by MTT assay ([1]; at the optimal concentrations)
1 | vitamin A | no cytotoxicity occurred | 2 to 5 µM and 2 to 10 µM | 1.20 | 1.59 times | 1.62 | – | – | – | –
2 | rFGF: recombinant growth factor bFGF (Santa Cruz) expressed in E. coli | – | – | – | – | – | 8215.3 | – | – | –
3 | Cc1cc2nc3c(=O)[nH]c(=O)nc-3n(C[C@H](O)[C@H](O)[C@H](O)CO)c2cc1C [vitamin B, riboflavin] | – | 50 to 100 µM | 1.56 | 1.68 times and 1.56 times | 1.33 | – | – | – | –
4 | CC1=C(/C=C/C(C)=C/C=C/C(C)=C/CO)C(C)(C)CCC1 [Retinol] | – | – | – | – | – | – | 54 | 54 | –
5 | vitamin D | – | 5 to 10 µM | 1.16 | 1.30 times | 2.80 | – | – | – | –
6 | O=C1O[C@H]([C@@H](O)CO)C(O)=C1O [vitamin C] | – | 10 to 100 µM | 1.20 | 1.68 times | 2.33 | – | – | – | no cytotoxicity occurred
